Laboratory results published in publication PMC6979384, “Characterization of the plant homeodomain (PHD) reader family for their histone tail interactions” (Epigenetics & Chromatin, 2020).
Where no end group is shown, it is not given here.

How the values were obtained:
Assay in all cases: Histone peptide microarray
Format in all cases: binding, human
PHF8 = conditions: PHF8; sheet "Array Heatmap"; each array performed twice, total n = 4
Source text: (§1) To more comprehensively define the histone interactions of the 31 PHD readers identified from the domain microarray analyses, we probed each on an alternate microarray platform containing a library of 293 synthetic histone peptides with single or combinatorial PTMs (Additional file 2: Figure S4 and Additional file 3: Table S2).
(§2) The 31 GST-tagged PHD readers identified in the PHD finger domain array were expressed and purified as previously. Histone peptide arrays and peptide pulldown assays were conducted as recently described (specifically, the optimized protocol from Petell et al. for the former).
(§3) Supplementary file 13072_2020_328_MOESM3_ESM.xlsx: Additional file 3: Table S2. […] Excel Tab Peptide List is a compiled list of the entire 293 histone peptide library with amino acid sequence ranges. […] Each number corresponds to the peptide number designated in Peptide List. Excel Tab Average Signals is a compiled set of binding data: chromatin reader at 0.5 μM vs. entire 293 peptide library. Data is presented as the average and standard deviation of 4 replicates. The average signals are colored to indicate signal intensity with green being strong and white being weak/low. […] Key: red= stronger relative binding; blue = weaker relative binding. Excel Tab Array info summary is a table summarizing the domains, sequence coverage, array signal range, and noise for each of the GST-tagged readers assayed on the peptide microarrays.

MORC3 (CW) = conditions: MORC3 (CW); sheet "Array Heatmap"; each array performed twice, total n = 4
Source text: as §1, §2, §3

MLL5 = conditions: MLL5; sheet "Array Heatmap"; each array performed twice, total n = 4
Source text: as §1, §2, §3

CHD5 (PPCC) = conditions: CHD5 (PPCC); sheet "Array Heatmap"; each array performed twice, total n = 4
Source text: as §1, §2, §3

BPTF (PB) = conditions: BPTF (PB); sheet "Array Heatmap"; each array performed twice, total n = 4
Source text: as §1, §2, §3

KDM5B (1) = conditions: KDM5B (1); sheet "Array Heatmap"; each array performed twice, total n = 4
Source text: as §1, §2, §3

SP140L = conditions: SP140L; sheet "Array Heatmap"; each array performed twice, total n = 4
Source text: as §1, §2, §3

DIDO1 = conditions: DIDO1; sheet "Array Heatmap"; each array performed twice, total n = 4
Source text: as §1, §2, §3

PHF13 = conditions: PHF13; sheet "Array Heatmap"; each array performed twice, total n = 4
Source text: as §1, §2, §3

ING3 = conditions: ING3; sheet "Array Heatmap"; each array performed twice, total n = 4
Source text: as §1, §2, §3

BAZ2B = conditions: BAZ2B; sheet "Array Heatmap"; each array performed twice, total n = 4
Source text: as §1, §2, §3

PHRF1 (RP) = conditions: PHRF1 (RP); sheet "Array Heatmap"; each array performed twice, total n = 4
Source text: as §1, §2, §3

KDM4C (TTP) = conditions: KDM4C (TTP); sheet "Array Heatmap"; each array performed twice, total n = 4
Source text: as §1, §2, §3

ING5 = conditions: ING5; sheet "Array Heatmap"; each array performed twice, total n = 4
Source text: as §1, §2, §3

CHD4 (PPCC) = conditions: CHD4 (PPCC); sheet "Array Heatmap"; each array performed twice, total n = 4
Source text: as §1, §2, §3

ING1 = conditions: ING1; sheet "Array Heatmap"; each array performed twice, total n = 4
Source text: as §1, §2, §3

PHF23 = conditions: PHF23; sheet "Array Heatmap"; each array performed twice, total n = 4
Source text: as §1, §2, §3

AIRE (PP) = conditions: AIRE (PP); sheet "Array Heatmap"; each array performed twice, total n = 4
Source text: as §1, §2, §3

ING4 = conditions: ING4; sheet "Array Heatmap"; each array performed twice, total n = 4
Source text: as §1, §2, §3

DPF2 (PPC2W2) = conditions: DPF2 (PPC2W2); sheet "Array Heatmap"; each array performed twice, total n = 4
Source text: as §1, §2, §3

RAG2 = conditions: RAG2; sheet "Array Heatmap"; each array performed twice, total n = 4
Source text: as §1, §2, §3

TRIM66 (PB) = conditions: TRIM66 (PB); sheet "Array Heatmap"; each array performed twice, total n = 4
Source text: as §1, §2, §3

KDM5B (3) = conditions: KDM5B (3); sheet "Array Heatmap"; each array performed twice, total n = 4
Source text: as §1, §2, §3

PHF2 = conditions: PHF2; sheet "Array Heatmap"; each array performed twice, total n = 4
Source text: as §1, §2, §3

KDM5A (1) = conditions: KDM5A (1); sheet "Array Heatmap"; each array performed twice, total n = 4
Source text: as §1, §2, §3

KDM7A = conditions: KDM7A; sheet "Array Heatmap"; each array performed twice, total n = 4
Source text: as §1, §2, §3

CHD5 (PCC) = conditions: CHD5 (PCC); sheet "Array Heatmap"; each array performed twice, total n = 4
Source text: as §1, §2, §3

ING2 = conditions: ING2; sheet "Array Heatmap"; each array performed twice, total n = 4
Source text: as §1, §2, §3

PHF21A = conditions: PHF21A; sheet "Array Heatmap"; each array performed twice, total n = 4
Source text: as §1, §2, §3

KDM5A (3) = conditions: KDM5A (3); sheet "Array Heatmap"; each array performed twice, total n = 4
Source text: as §1, §2, §3

TAF3 = conditions: TAF3; sheet "Array Heatmap"; each array performed twice, total n = 4
Source text: as §1, §2, §3

Substance: H2A.X (1-17): H2AX 1-17 (SGRGKTGGKARAKAKSR; UniProt P16104 2-18, looked up, fragment)
- Array Heatmap value (peptide array signal) (PHF8): 0.3196
- Array Heatmap value (peptide array signal) (MORC3 (CW)): 0.3549
- Array Heatmap value (peptide array signal) (MLL5): 0.5474
- Array Heatmap value (peptide array signal) (CHD5 (PPCC)): 0.5657
- Array Heatmap value (peptide array signal) (BPTF (PB)): 0.3452
- Array Heatmap value (peptide array signal) (KDM5B (1)): 0.6651
- Array Heatmap value (peptide array signal) (SP140L): 0.3804
- Array Heatmap value (peptide array signal) (DIDO1): 0.6032
- Array Heatmap value (peptide array signal) (PHF13): 0.6046
- Array Heatmap value (peptide array signal) (ING3): 0.4419
- Array Heatmap value (peptide array signal) (BAZ2B): 0.5024
- Array Heatmap value (peptide array signal) (PHRF1 (RP)): 0.3918
- Array Heatmap value (peptide array signal) (KDM4C (TTP)): 0.5423
- Array Heatmap value (peptide array signal) (ING5): 0.3684
- Array Heatmap value (peptide array signal) (CHD4 (PPCC)): 0.5416
- Array Heatmap value (peptide array signal) (ING1): 0.4806
- Array Heatmap value (peptide array signal) (PHF23): 0.4786
- Array Heatmap value (peptide array signal) (AIRE (PP)): 0.5574
- Array Heatmap value (peptide array signal) (ING4): 0.4775
- Array Heatmap value (peptide array signal) (DPF2 (PPC2W2)): 0.6636
- Array Heatmap value (peptide array signal) (RAG2): 0.2388
- Array Heatmap value (peptide array signal) (TRIM66 (PB)): 0.5377
- Array Heatmap value (peptide array signal) (KDM5B (3)): 0.4974
- Array Heatmap value (peptide array signal) (PHF2): 0.3941
- Array Heatmap value (peptide array signal) (KDM5A (1)): 0.4987
- Array Heatmap value (peptide array signal) (KDM7A): 0.5198
- Array Heatmap value (peptide array signal) (CHD5 (PCC)): 0.8255
- Array Heatmap value (peptide array signal) (ING2): 0.5852
- Array Heatmap value (peptide array signal) (PHF21A): 0.4705
- Array Heatmap value (peptide array signal) (KDM5A (3)): 0.4093
- Array Heatmap value (peptide array signal) (TAF3): 0.2689

Substance: H2A.X K5ac: H2AX 1-17 (SGRGK(Ac)TGGKARAKAKSR; UniProt P16104 2-18, looked up, fragment)
- Array Heatmap value (peptide array signal) (PHF8): 0.3518
- Array Heatmap value (peptide array signal) (MORC3 (CW)): 0.3506
- Array Heatmap value (peptide array signal) (MLL5): 0.5039
- Array Heatmap value (peptide array signal) (CHD5 (PPCC)): 0.549
- Array Heatmap value (peptide array signal) (BPTF (PB)): 0.3356
- Array Heatmap value (peptide array signal) (KDM5B (1)): 0.7034
- Array Heatmap value (peptide array signal) (SP140L): 0.3645
- Array Heatmap value (peptide array signal) (DIDO1): 0.6192
- Array Heatmap value (peptide array signal) (PHF13): 0.5821
- Array Heatmap value (peptide array signal) (ING3): 0.4453
- Array Heatmap value (peptide array signal) (BAZ2B): 0.4631
- Array Heatmap value (peptide array signal) (PHRF1 (RP)): 0.4233
- Array Heatmap value (peptide array signal) (KDM4C (TTP)): 0.5139
- Array Heatmap value (peptide array signal) (ING5): 0.3639
- Array Heatmap value (peptide array signal) (CHD4 (PPCC)): 0.5228
- Array Heatmap value (peptide array signal) (ING1): 0.4851
- Array Heatmap value (peptide array signal) (PHF23): 0.5099
- Array Heatmap value (peptide array signal) (AIRE (PP)): 0.4642
- Array Heatmap value (peptide array signal) (ING4): 0.4505
- Array Heatmap value (peptide array signal) (DPF2 (PPC2W2)): 0.6362
- Array Heatmap value (peptide array signal) (RAG2): 0.2437
- Array Heatmap value (peptide array signal) (TRIM66 (PB)): 0.5335
- Array Heatmap value (peptide array signal) (KDM5B (3)): 0.4746
- Array Heatmap value (peptide array signal) (PHF2): 0.3936
- Array Heatmap value (peptide array signal) (KDM5A (1)): 0.4768
- Array Heatmap value (peptide array signal) (KDM7A): 0.4169
- Array Heatmap value (peptide array signal) (CHD5 (PCC)): 0.7832
- Array Heatmap value (peptide array signal) (ING2): 0.5785
- Array Heatmap value (peptide array signal) (PHF21A): 0.4552
- Array Heatmap value (peptide array signal) (KDM5A (3)): 0.4343
- Array Heatmap value (peptide array signal) (TAF3): 0.2702
